For one molecule, IC50 results are on record in BindingDB's records for doi:10.1016/j.bmcl.2016.04.028 (Chinese Academy of Sciences (Cas), 2016).

Molecules are shown by their SMILES. pIC50: −log10 of the molar value.

Test [1] can be described thus: Inhibition of FGFR1 in human KG1 cells assessed as suppression of cell proliferation after 72 hrs by SRB/CCK-8 assay.
A short description of test [2]: Inhibition of FGFR1 in human H1581 cells assessed as suppression of cell proliferation after 72 hrs by SRB/CCK-8 assay.
Test [3] can be described thus: Inhibition of FGFR3 in human RT112 cells assessed as suppression of cell proliferation after 72 hrs by SRB/CCK-8 assay.

As for `COc1cc(CCc2cc(Nc3ncnc4cc(N5CCN6CCCCC6C5)ccc34)n[nH]2)cc(OC)c1` (stereo not drawn), the pIC50 in test [1] is above 9.70; in test [2], above 9.30; in test [3], above 9.70.
